PubChem BioAssay (NCI)
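Each compound was tested at five concentrations against cells in 96-well plates for 48 hours. GI50 = concentration required for 50% inhibition of growth. TGI: concentration producing complete growth inhibition.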

Key:
Assay in all cases: growth of human tumour cells (NCI), 48 h; in the data active = GI50 below about 0.43 µM; inactive = the rest
[1] = test system: 786-0 renal
[2] = test system: A498 renal
[3] = test system: A549 NSCLC
[4] = test system: ACHN renal
[5] = test system: CAKI-1 renal
[6] = test system: CCRF-CEM leukemia
[7] = test system: COLO 205 colon
[8] = test system: DLD-1 colon
[9] = test system: DMS 273 small cell lung
[10] = test system: EKVX NSCLC
[11] = test system: HCT-15 colon
[12] = test system: HL-60(TB) leukemia
[13] = test system: HOP-18 NSCLC
[14] = test system: HOP-92 NSCLC
[15] = test system: HT29 colon
[16] = test system: IGROV1 ovarian
[17] = test system: K-562 leukemia
[18] = test system: KM12 colon
[19] = test system: KM20L2 colon
[20] = test system: LOX IMVI melanoma
[21] = test system: LXFL 529 NSCLC
[22] = test system: M14 melanoma
[23] = test system: M19-MEL melanoma
[24] = test system: MALME-3M melanoma
[25] = test system: MOLT-4 leukemia
[26] = test system: NCI-H23 lung
[27] = test system: NCI-H460 lung
[28] = test system: NCI-H522 lung
[29] = test system: OVCAR-3 ovarian
[30] = test system: OVCAR-4 ovarian
[31] = test system: OVCAR-5 ovarian
[32] = test system: OVCAR-8 ovarian
[33] = test system: RPMI-8226 leukemia
[34] = test system: RXF 393 renal
[35] = test system: SF-268 CNS
[36] = test system: SF-295 CNS
[37] = test system: SF-539 CNS
[38] = test system: SK-MEL-2 melanoma
[39] = test system: SK-MEL-28 melanoma
[40] = test system: SK-MEL-5 melanoma
[41] = test system: SK-OV-3 ovarian
[42] = test system: SN12C renal
[43] = test system: SNB-19 CNS
[44] = test system: SNB-75 CNS
[45] = test system: SW-620 colon
[46] = test system: TK-10 renal
[47] = test system: U251 CNS
[48] = test system: UACC-257 melanoma
[49] = test system: UACC-62 melanoma
[50] = test system: UO-31 renal
[51] = test system: XF 498 CNS
[52] = test system: HCC-2998 colon
[53] = test system: HOP-62 NSCLC

CC(NS(=O)(=O)c1ccc(Cl)cc1)C(=O)O (stereo not given)
> 100 µM: TGI [1] | TGI [2] | TGI [3] | TGI [4] | TGI [5] | TGI [6] | TGI [7] | TGI [8] | TGI [9] | TGI [10] | TGI [11] | TGI [12] | TGI [13] | TGI [14] | TGI [15] | TGI [16] | TGI [17] | TGI [18] | TGI [19] | TGI [20] | TGI [21] | TGI [22] | TGI [23] | TGI [24] | TGI [25] | TGI [26] | TGI [27] | TGI [28] | TGI [29] | TGI [30] | TGI [31] | TGI [32] | TGI [33] | TGI [34] | TGI [35] | TGI [36] | TGI [37] | TGI [38] | TGI [39] | TGI [40] | TGI [41] | TGI [42] | TGI [43] | TGI [44] | TGI [45] | TGI [46] | TGI [47] | TGI [48] | TGI [49] | TGI [50] | TGI [51]

NC1CCCCC1N.O=NN1CCCCCC1(P(=O)([O-])[O-])P(=O)([O-])[O-].[Na+].[Pt+2]
> 100 µM: TGI [1] | TGI [2] | TGI [3] | TGI [4] | TGI [5] | TGI [6] | TGI [7] | TGI [8] | TGI [9] | TGI [10] | TGI [52] | TGI [11] | TGI [12] | TGI [13] | TGI [53] | TGI [14] | TGI [15] | TGI [16] | TGI [17] | TGI [18] | TGI [19] | TGI [20] | TGI [21] | TGI [22] | TGI [24] | TGI [25] | TGI [26] | TGI [27] | TGI [28] | TGI [29] | TGI [30] | TGI [31] | TGI [32] | TGI [33] | TGI [34] | TGI [35] | TGI [36] | TGI [37] | TGI [38] | TGI [39] | TGI [40] | TGI [41] | TGI [42] | TGI [43] | TGI [44] | TGI [45] | TGI [46] | TGI [47] | TGI [48] | TGI [49] | TGI [50] | TGI [51]
inactive: GI50 [1] > 100 µM | GI50 [2] > 100 µM | GI50 [3] > 100 µM | GI50 [4] > 100 µM | GI50 [5] > 100 µM | GI50 [6] > 100 µM | GI50 [7] > 100 µM | GI50 [8] > 100 µM | GI50 [9] > 100 µM | GI50 [10] > 100 µM | GI50 [52] > 100 µM | GI50 [11] > 100 µM | GI50 [12] > 100 µM | GI50 [13] > 100 µM | GI50 [53] > 100 µM | GI50 [14] > 100 µM | GI50 [15] > 100 µM | GI50 [16] > 100 µM | GI50 [17] > 100 µM | GI50 [18] > 100 µM | GI50 [19] > 100 µM | GI50 [20] > 100 µM | GI50 [21] > 100 µM | GI50 [22] > 100 µM | GI50 [24] > 100 µM | GI50 [25] > 100 µM | GI50 [26] > 100 µM | GI50 [27] > 100 µM | GI50 [28] > 100 µM | GI50 [29] > 100 µM | GI50 [30] > 100 µM | GI50 [31] > 100 µM | GI50 [32] > 100 µM | GI50 [33] > 100 µM | GI50 [34] > 100 µM | GI50 [35] > 100 µM | GI50 [36] > 100 µM | GI50 [37] > 100 µM | GI50 [38] > 100 µM | GI50 [39] > 100 µM | GI50 [40] > 100 µM | GI50 [41] > 100 µM | GI50 [42] > 100 µM | GI50 [43] > 100 µM | GI50 [44] 96.9 µM | GI50 [45] > 100 µM | GI50 [46] > 100 µM | GI50 [47] > 100 µM | GI50 [48] > 100 µM | GI50 [49] > 100 µM | GI50 [50] > 100 µM | GI50 [51] > 100 µM
